Results reported in ChEMBL document CHEMBL4130560, “Discovery of Indolinone-Based Multikinase Inhibitors as Potential Therapeutics for Idiopathic Pulmonary Fibrosis” (ACS Med Chem Lett, 2017).

Key:
[1] = target: Platelet-derived growth factor receptor beta (Homo sapiens, UniProt P09619); experiment: Inhibition of recombinant PDGFRbeta (unknown origin) by off-chip mobility shift assay
[2] = Oral bioavailability in CD1 mouse at 50 mg/kg administered via gavage by UFLC-MS/MS analysis; assay type: ADME, organism-based; conditions: in vivo
[3] = Half life in Beagle dog […] at 20 mg/kg, iv by UFLC-MS/MS analysis; assay type: ADME, organism-based, Canis lupus familiaris; conditions: in vivo
[4] = Oral bioavailability in Beagle dog […] at 20 mg/kg administered via gavage by UFLC-MS/MS analysis; assay type: ADME, organism-based, Canis lupus familiaris; conditions: in vivo
[5] = Half life in Sprague-Dawley rat at 10 mg/kg, iv by UFLC-MS/MS analysis; assay type: ADME, organism-based; conditions: in vivo
[6] = AUC in Beagle dog […] at 20 mg/kg, iv by UFLC-MS/MS analysis; assay type: ADME, organism-based, Canis lupus familiaris; conditions: in vivo
[7] = Oral bioavailability in Sprague-Dawley rat at 10 mg/kg administered via gavage by UFLC-MS/MS analysis; assay type: ADME, organism-based; conditions: in vivo
[8] = test system: Mus musculus; experiment: Antifibrotic activity in BLM-induced chronic pulmonary fibrosis C57 mouse model assessed as increase in survival rate administered qd measured up to 28 days; assay type: functional, organism-based
[9] = Half life in CD1 mouse at 50 mg/kg, iv by UFLC-MS/MS analysis; assay type: ADME, organism-based; conditions: in vivo
[10] = AUC in CD1 mouse at 50 mg/kg, iv by UFLC-MS/MS analysis; assay type: ADME, organism-based; conditions: in vivo
[11] = test system: Mus musculus; experiment: Toxicity in C57 mouse at 10 to 100 mg/kg, po administered qd measured up to 28 days; assay type: organism-based; conditions: in vivo, 672 h
[12] = target: Mast/stem cell growth factor receptor Kit (Homo sapiens, UniProt P10721); experiment: Inhibition of recombinant c-KIT (unknown origin) by off-chip mobility shift assay
Chain of Mast/stem cell growth factor receptor Kit (P10721 whole entry): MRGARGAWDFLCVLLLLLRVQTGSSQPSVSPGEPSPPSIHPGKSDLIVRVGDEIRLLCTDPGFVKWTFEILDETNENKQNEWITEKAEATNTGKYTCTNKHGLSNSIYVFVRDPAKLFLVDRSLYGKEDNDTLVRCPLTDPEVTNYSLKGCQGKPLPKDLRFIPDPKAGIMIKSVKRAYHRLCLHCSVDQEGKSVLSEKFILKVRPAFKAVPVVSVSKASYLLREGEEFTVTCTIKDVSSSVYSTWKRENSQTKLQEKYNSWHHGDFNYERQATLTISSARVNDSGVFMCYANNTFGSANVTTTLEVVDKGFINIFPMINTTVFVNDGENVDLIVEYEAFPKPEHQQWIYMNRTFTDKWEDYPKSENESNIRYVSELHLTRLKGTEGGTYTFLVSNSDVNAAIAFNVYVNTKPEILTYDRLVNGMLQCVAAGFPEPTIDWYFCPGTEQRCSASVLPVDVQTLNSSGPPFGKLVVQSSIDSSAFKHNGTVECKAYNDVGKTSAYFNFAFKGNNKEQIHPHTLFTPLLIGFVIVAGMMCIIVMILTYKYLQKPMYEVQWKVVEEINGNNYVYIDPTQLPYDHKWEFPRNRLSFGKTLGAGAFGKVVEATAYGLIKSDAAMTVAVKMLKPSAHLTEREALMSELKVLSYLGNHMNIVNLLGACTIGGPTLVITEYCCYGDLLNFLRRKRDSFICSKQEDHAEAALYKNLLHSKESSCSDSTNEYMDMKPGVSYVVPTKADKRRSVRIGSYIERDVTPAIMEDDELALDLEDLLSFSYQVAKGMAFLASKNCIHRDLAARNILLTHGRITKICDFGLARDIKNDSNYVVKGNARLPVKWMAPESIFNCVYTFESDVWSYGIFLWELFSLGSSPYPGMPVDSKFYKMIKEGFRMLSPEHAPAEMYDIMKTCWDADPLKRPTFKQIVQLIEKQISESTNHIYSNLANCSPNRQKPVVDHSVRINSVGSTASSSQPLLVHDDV

[13] = target: Voltage-gated inwardly rectifying potassium channel KCNH2 (Homo sapiens, UniProt Q12809)
Chain of Voltage-gated inwardly rectifying potassium channel KCNH2 (Q12809 whole entry): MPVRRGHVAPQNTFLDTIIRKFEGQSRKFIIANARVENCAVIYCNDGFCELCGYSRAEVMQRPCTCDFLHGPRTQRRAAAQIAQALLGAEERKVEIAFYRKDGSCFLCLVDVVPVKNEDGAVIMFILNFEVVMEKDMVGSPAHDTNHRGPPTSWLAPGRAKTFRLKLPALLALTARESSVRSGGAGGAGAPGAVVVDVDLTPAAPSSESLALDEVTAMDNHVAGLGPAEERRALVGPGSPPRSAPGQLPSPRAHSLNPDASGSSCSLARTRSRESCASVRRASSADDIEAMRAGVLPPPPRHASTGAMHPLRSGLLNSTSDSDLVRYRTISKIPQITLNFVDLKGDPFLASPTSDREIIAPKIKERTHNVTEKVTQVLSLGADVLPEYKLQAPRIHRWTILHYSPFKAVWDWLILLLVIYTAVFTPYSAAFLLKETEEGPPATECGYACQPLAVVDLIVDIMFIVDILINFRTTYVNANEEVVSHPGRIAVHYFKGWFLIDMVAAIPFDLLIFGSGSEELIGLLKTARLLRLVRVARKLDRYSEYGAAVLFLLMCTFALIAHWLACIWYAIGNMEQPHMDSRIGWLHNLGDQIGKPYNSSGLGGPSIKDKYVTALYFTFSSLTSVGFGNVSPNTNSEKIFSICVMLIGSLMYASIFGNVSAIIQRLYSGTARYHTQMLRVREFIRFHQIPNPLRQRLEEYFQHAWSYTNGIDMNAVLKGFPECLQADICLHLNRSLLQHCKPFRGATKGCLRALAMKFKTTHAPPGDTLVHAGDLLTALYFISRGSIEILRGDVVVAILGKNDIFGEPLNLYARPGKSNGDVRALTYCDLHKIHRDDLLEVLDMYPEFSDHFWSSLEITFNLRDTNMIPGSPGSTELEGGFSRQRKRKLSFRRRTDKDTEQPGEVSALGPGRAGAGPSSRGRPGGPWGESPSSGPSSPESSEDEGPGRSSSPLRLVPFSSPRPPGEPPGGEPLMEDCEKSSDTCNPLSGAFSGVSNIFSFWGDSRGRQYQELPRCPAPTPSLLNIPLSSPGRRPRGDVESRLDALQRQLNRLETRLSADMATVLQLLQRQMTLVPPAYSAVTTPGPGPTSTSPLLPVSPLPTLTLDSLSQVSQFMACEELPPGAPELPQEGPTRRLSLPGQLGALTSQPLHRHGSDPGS

[14] = AUC in Sprague-Dawley rat at 10 mg/kg, iv by UFLC-MS/MS analysis; assay type: ADME, organism-based; conditions: in vivo
[15] = test system: Mus musculus; experiment: Toxicity in C57 mouse assessed as lethality at 5 mg/kg, iv after 28 days; assay type: organism-based; conditions: in vivo, 672 h

Chain of Platelet-derived growth factor receptor beta (P09619 whole entry): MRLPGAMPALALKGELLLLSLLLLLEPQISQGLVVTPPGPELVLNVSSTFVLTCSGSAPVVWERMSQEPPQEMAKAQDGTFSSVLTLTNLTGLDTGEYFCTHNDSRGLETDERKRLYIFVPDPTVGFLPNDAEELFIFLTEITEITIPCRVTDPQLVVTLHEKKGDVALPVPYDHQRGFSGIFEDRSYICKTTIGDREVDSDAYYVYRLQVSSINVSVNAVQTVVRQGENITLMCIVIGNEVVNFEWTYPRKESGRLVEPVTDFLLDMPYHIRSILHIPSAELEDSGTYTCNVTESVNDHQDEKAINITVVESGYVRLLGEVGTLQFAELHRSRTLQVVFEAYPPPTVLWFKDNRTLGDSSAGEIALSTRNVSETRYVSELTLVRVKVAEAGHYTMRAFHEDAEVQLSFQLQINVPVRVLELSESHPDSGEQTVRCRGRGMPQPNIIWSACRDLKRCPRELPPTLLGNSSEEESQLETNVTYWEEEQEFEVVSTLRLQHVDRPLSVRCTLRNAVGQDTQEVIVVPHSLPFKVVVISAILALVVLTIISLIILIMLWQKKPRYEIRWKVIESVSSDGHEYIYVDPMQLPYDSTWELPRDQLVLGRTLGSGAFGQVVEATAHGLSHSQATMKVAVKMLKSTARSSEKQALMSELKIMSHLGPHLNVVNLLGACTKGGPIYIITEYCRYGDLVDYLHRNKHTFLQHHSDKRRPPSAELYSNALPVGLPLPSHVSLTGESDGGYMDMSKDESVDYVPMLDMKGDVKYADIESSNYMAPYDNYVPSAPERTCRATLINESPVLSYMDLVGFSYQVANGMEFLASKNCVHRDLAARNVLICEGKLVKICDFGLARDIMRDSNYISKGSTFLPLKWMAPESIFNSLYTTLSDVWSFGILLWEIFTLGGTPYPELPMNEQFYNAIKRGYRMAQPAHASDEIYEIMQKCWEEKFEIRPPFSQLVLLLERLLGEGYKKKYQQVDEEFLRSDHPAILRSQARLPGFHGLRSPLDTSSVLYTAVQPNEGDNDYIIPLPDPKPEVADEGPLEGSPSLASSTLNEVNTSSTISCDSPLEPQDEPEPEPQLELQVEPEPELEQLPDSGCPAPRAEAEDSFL

Row | IC50 [1] [µM] | SMILES | IC50 [13] [µM] | further results
1 | 0.013 | CN1CCN(CC(=O)N(C)c2ccc(N/C(=C3\C(=O)Nc4cc(-c5nnn(C)n5)ccc43)c3ccccc3)cc2)CC1 |  | 
2 | 0.025 | COC(=O)c1ccc2c(c1)NC(=O)/C2=C(\Nc1ccc2c(c1)N(C(=O)CN1CCOCC1)CC2)c1ccccc1 | > 0.03 | bioavailability [2]: 51%; half-life [3]: 3.3 h; bioavailability [4]: 29%; half-life [5]: 4.8 h; AUC [6]: 2.96 µg·h/mL; bioavailability [7]: 68%; Activity [8]: Dose-dependent effect; half-life [9]: 4.3 h; AUC [10]: 17 µg·h/mL; Activity [11]: Non-Toxic; IC50 [12]: 0.01 µM; AUC [14]: 6.41 µg·h/mL
3 | 0.019 | COC(=O)c1ccc2c(c1)NC(=O)/C2=C(\Nc1ccc2c(c1)N(C(=O)CN1CCCC1=O)CC2)c1ccccc1 | > 0.03 | 
4 |  | COC(=O)c1ccc2c(c1)NC(=O)/C2=C(\Nc1ccc(N(C)C(=O)CN2CCN(C)CC2)cc1)c1ccccc1 [NINTEDANIB] | 0.0026 | 
5 | 0.014 | COC(=O)c1ccc2c(c1)NC(=O)/C2=C(\Nc1ccc(N2C(=O)CC[C@@H]2CN(C)C)cc1)c1ccccc1 |  | 
6 | 0.027 | CN1CCN(CC(=O)N(C)c2ccc(N/C(=C3\C(=O)Nc4cc(OC(F)(F)F)ccc43)c3ccccc3)cc2)CC1 |  | 
7 | 0.045 | COC(=O)c1ccc2c(c1)NC(=O)/C2=C(\Nc1ccc(N2CCC(CN3CCN(C)CC3)C2=O)cc1)c1ccccc1 (stereo unspecified) |  | 
8 | 0.0015 | CN1CCN(CC(=O)N(C)c2ccc(N/C(=C3\C(=O)Nc4cc(-n5nccn5)ccc43)c3ccccc3)cc2)CC1 |  | 
9 | 0.024 | COC(=O)c1ccc2c(c1)NC(=O)/C2=C(\Nc1ccc2c(c1)N(C(=O)Cn1cccn1)CC2)c1ccccc1 | > 0.03 | 
10 | 0.034 | CN1CCN(CC(=O)N(C)c2ccc(N/C(=C3\C(=O)Nc4cc(-c5cnco5)ccc43)c3ccccc3)cc2)CC1 |  | 
11 | 0.015 | COC(=O)c1ccc2c(c1)NC(=O)/C2=C(\Nc1ccc2c(c1)N(C(=O)CN(C)C)CC2)c1ccccc1 |  | 
12 | 0.091 | COC(=O)c1ccc2c(c1)NC(=O)/C2=C(\Nc1ccc2c(c1)N(C(=O)CN1CC(C)OC(C)C1)CC2)c1ccccc1 (stereo unspecified) | > 0.03 | 
13 | 0.0045 | CN1CCN(CC(=O)N(C)c2ccc(N/C(=C3\C(=O)Nc4cc(-c5ncno5)ccc43)c3ccccc3)cc2)CC1 |  | 
14 | 0.012 | CN1CCN(CC(=O)N(C)c2ccc(N/C(=C3\C(=O)Nc4cc(-c5ccco5)ccc43)c3ccccc3)cc2)CC1 |  | 
15 | 0.0043 | COC(=O)c1ccc2c(c1)NC(=O)/C2=C(\Nc1ccc(N2C(=O)CC[C@H]2CN2CCN(C)CC2)cc1)c1ccccc1 |  | 
16 | 0.015 | COC(=O)c1ccc2c(c1)NC(=O)/C2=C(\Nc1ccc2c(c1)N(C(=O)Cn1cncn1)CC2)c1ccccc1 | > 0.03 | 
17 | 0.0032 | COC(=O)c1ccc2c(c1)NC(=O)/C2=C(\Nc1ccc(N2C(=O)CC[C@@H]2CN2CCN(C)CC2)cc1)c1ccccc1 |  | 

Row | SMILES | IC50 [1] [µM] | IC50 [13] [µM] | further results
18 | CN1CCN(CC(=O)N(C)c2ccc(N/C(=C3\C(=O)Nc4cc(-c5ncon5)ccc43)c3ccccc3)cc2)CC1 | 0.0053 |  | Activity [15]: Toxic
